Reference: patent US20040265265A1, “Odor control composition and process” (H&S CHEMICAL COMPANY, INC., priority 2001, published 2004)

Key:
[1] = stability of solutions as a function of pH; type: physicochemical; conditions: below a pH of 6
Text: As is discussed above the pH range for CHT and CH-BENZ solutions for use in this invention can be from about 6- 14. […] While the solutions of this invention are effective above a pH of 10.0, solutions having a pH of 10.0 can only be used for industrial applications, due to their caustic nature.
This stability is important in domestic applications of this invention where long shelf life is very desirable.

[2] = limit of solubility in water; conditions: at room temperature in water

Structure (SMILES): Cc1ccc(S(=O)(=O)[N-]Cl)cc1.[Na+] [CHT, Chloramine-T]
- stability in acidic medium [1]: tend to decompose
- limit of solubility [2]: about 15%

Structure (SMILES): O=C([O-])c1ccc(S(=O)(=O)NCl)cc1.[Na+] [CH-BENZ, N-Chloro-4-Carboxybenzenesulfonamide sodium salt]
- stability in acidic medium [1]: tend to decompose
- limit of solubility [2]: about 20%
